Where two headings read alike, the source gives them in different places.
Experiments:
[1] = test system: HCV genotype 1a (H77 strain) replicon in HUH-7 cells; assay: HCV replicon luciferase reporter assay, genotype 1a; format: cell-based; details: Hepatitis C virus, Huh-7, 72 h, 3 days incubation, read-out: LE_1a (EC50, range)
Outline: (§1)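 Replicon inhibition for both genotypes was measured as Renilla luciferase signal (EnduRen, 7.5 μM final, 2 h) after 3-day, 37° C exposure of replicon-bearing HUH-7 cells in 4% FCS DMEM, 0.5% DMSO. The 1b construct carries S1179I; the 1a H77 construct carries P1496L and S2204I. Twenty-point, 3-fold dilutions were fitted four-parametrically for EC50, and CC50 was taken from multiplexed Cell Titer-Blue.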

[2] = test system: HCV genotype 1b (Con1) replicon in HUH-7 cells; assay: HCV replicon luciferase reporter assay, genotype 1b; format: cell-based; details: Hepatitis C virus, Huh-7, 72 h, 3 days incubation, read-out: LE_1b (EC50, range)
Outline: as §1

[3] = GETYPE1A, HCV genotype 1a replicon luciferase
[4] = GETYPE1B, HCV genotype 1b replicon luciferase
[5] = HCV genotype 1a replicon luciferase
[6] = HCV genotype 1b replicon luciferase
[7] = HCV genotype 1a replicon luciferase assay, range class
[8] = HCV genotype 1b replicon luciferase assay, range class

## CCOc1cnc(O[C@@H]2C[C@H]3C(=O)N[C@]4(C(=O)NS(=O)(=O)C5CC5)C[C@H]4/C=C\CC[C@@H](C)C[C@@H](CC)[C@H](NC(=O)OC(C)(C)C(F)(F)F)C(=O)N3C2)c2ccccc12 [Compound 4185]
[1]; [3]
  EC50: < 5.46 nM
[2]; [4]
  EC50: < 5.46 nM

## COc1cc2c(OC)cnc(O[C@@H]3C[C@H]4C(=O)N[C@]5(C(=O)NS(=O)(=O)C6(CO)CC6)C[C@H]5/C=C\CC[C@H](C)C[C@@H](C)[C@H](NC(=O)OC(C)(C)C)C(=O)N4C3)c2cc1F [Compound 4123, tert-butyl (2R,6S,7R,9S,13aS,14aR,16aS,Z)-2-(7-fluoro-4,6-dimethoxyisoquinolin-1-yloxy)-14a-(1-(hydroxymethyl)cyclopropylsulfonylcarbamoyl)-7,9-dimethyl-5,16-dioxo-1,2,3,5,6,7,8,9,10,11,13a,14,14a,15,16,16a-hexadecahydrocyclopropa[e]pyrrolo[1,2-a][1,4]diazacyclopentadecin-6-ylcarbamate]
[1]; [5]
  EC50: 4.82 to 103 nM
[2]; [6]
  EC50: 4.82 to 103 nM

## CC[C@@H]1C[C@H](C)CC/C=C\[C@@H]2C[C@@]2(C(=O)NS(=O)(=O)C2(CO)CC2)NC(=O)[C@@H]2C[C@@H](Oc3nccc4cc(OC)c(F)cc34)CN2C(=O)[C@H]1NC(=O)OC(C)(C)C(F)(F)F [Compound 4325]
[1]; [3]
  EC50: 35 to 620 nM
[2]; [4]
  EC50: 5.01 to 35 nM

## COc1ccc2c(O[C@@H]3C[C@H]4C(=O)N[C@]5(C(=O)NS(=O)(=O)C6CC6)C[C@H]5/C=C\CC[C@@H](C)C[C@@H](C)[C@H](NC(=O)O[C@@H]5C[C@@H]6C[C@@H]6C5)C(=O)N4C3)nc(-c3ccc(OC)c(Cl)c3)cc2c1 [Compound 3054, (1R,3r,5S)-bicyclo[3.1.0]hexan-3-yl((2R,6S,7R,9R,13aS,14aR,16aS,Z)-2-((3-(3-chloro-4-methoxyphenyl)-6-methoxyisoquinolin-1-yl)oxy)-14a-((cyclopropylsulfonyl)carbamoyl)-7,9-dimethyl-5,16-dioxo-1,2,3,5,6,7,8,9,10,11,13a,14,14a,15,16,16a-hexadecahydrocyclopropa[e]pyrrolo[1,2-a][1,4]diazacyclopentadecin-6-yl)carbamate]
[1]; [7]
  EC50: < 5.46 nM
[2]; [8]
  EC50: < 5.46 nM

## COc1ccc2c(O[C@@H]3C[C@H]4C(=O)N[C@]5(C(=O)NS(=O)(=O)C6(C)CC6)C[C@H]5/C=C\CC[C@@H](C)C[C@@H](C)[C@H](NC(=O)OC(C)(C)C(F)(F)F)C(=O)N4C3)nc(-c3ccc(OC(C)C)cc3)cc2c1 [Compound 4064]
[1]; [3]
  EC50: < 5.46 nM
[2]; [4]
  EC50: < 5.46 nM

## CCOc1ccc2nc(C(F)(F)F)c(O[C@@H]3C[C@H]4C(=O)N[C@]5(C(=O)NS(=O)(=O)C6(C)CC6)C[C@H]5/C=C\CC[C@H](C)C[C@@H](C)[C@H](NC(=O)OC(C)(C)C(F)(F)F)C(=O)N4C3)nc2c1 [Compound 4349]
[1]; [3]
  EC50: 5.01 to 35 nM
[2]; [4]
  EC50: 1.01 to 5 nM

## CC[C@@H]1C[C@H](C)CC/C=C\[C@@H]2C[C@@]2(C(=O)NS(=O)(=O)C2CC2)NC(=O)[C@@H]2C[C@@H](Oc3nccc4c5c(ccc34)OCCO5)CN2C(=O)[C@H]1NC(=O)OC(C)(C)C [Compound 5341, tert-butyl ((2R,6S,7R,9R,13aS,14aR,16aS,Z)-14a-((cyclopropylsulfonyl)carbamoyl)-2-((2,3-dihydro-[1,4]dioxino[2,3-f]isoquinolin-7-yl)oxy)-7-ethyl-9-methyl-5,16-dioxo-1,2,3,5,6,7,8,9,10,11,13a,14,14a,15,16,16a-hexadecahydrocyclopropa[e]pyrrolo[1,2-a][1,4]diazacyclopentadecin-6-yl)carbamate]
[1]; [5]
  EC50: < 5.46 nM
[2]; [6]
  EC50: < 5.46 nM

## CC[C@@H]1C[C@H](C)CC/C=C\[C@@H]2C[C@@]2(C(=O)NS(=O)(=O)C2(C)CC2)NC(=O)[C@@H]2C[C@@H](Oc3nccc4c(OC)cccc34)CN2C(=O)[C@H]1NC(=O)NC(C)(C)C [Compound 3034, (2R,6S,7R,9R,13aS,14aR,16aS,Z)-6-(3-(tert-butyl)ureido)-7-ethyl-2-((5-methoxyisoquinolin-1-yl)oxy)-9-methyl-N-((1-methylcyclopropyl)sulfonyl)-5,16-dioxo-1,2,3,5,6,7,8,9,10,11,13a,14,14a,15,16,16a-hexadecahydrocyclopropa[e]pyrrolo[1,2-a][1,4]diazacyclopentadecine-14a-carboxamide]
[1]; [7]
  EC50: < 5.46 nM
[2]; [8]
  EC50: < 5.46 nM

## CC[C@@H]1C[C@H](C)CC/C=C\[C@@H]2C[C@@]2(C(=O)NS(=O)(=O)C2CC2)NC(=O)[C@@H]2C[C@@H](Oc3ncc(C(N)=O)c4cc(OC)ccc34)CN2C(=O)[C@H]1NC(=O)OC(C)(C)C [Compound 4342, tert-butyl ((2R,6S,7R,9R,13aS,14aR,16aS,Z)-2-((4-carbamoyl-6-methoxyisoquinolin-1-yl)oxy)-14a-((cyclopropylsulfonyl)carbamoyl)-7-ethyl-9-methyl-5,16-dioxo-1,2,3,5,6,7,8,9,10,11,13a,14,14a,15,16,16a-hexadecahydrocyclopropa[e]pyrrolo[1,2-a][1,4]diazacyclopentadecin-6-yl)carbamate]
[1]; [5]
  EC50: 5.01 to 35 nM
[2]; [6]
  EC50: 35 to 620 nM

## CCCOc1cc2c(Cl)cccc2c(O[C@@H]2C[C@H]3C(=O)N[C@]4(C(=O)NS(=O)(=O)C5(C)CC5)C[C@H]4/C=C\CC[C@@H](C)C[C@@H](C)[C@H](NC(=O)O[C@H](C)C(F)(F)F)C(=O)N3C2)n1 [Compound 1080, (R)-1,1,1-trifluoropropan-2-yl ((2R,6S,7R,9R,13aS,14aR,16aS,Z)-2-((5-chloro-3-propoxyisoquinolin-1-yl)oxy)-7,9-dimethyl-14a-(((1-methylcyclopropyl)sulfonyl)carbamoyl)-5,16-dioxo-1,2,3,5,6,7,8,9,10,11,13a,14,14a,15,16,16a-hexadecahydrocyclopropa[e]pyrrolo[1,2-a][1,4]diazacyclopentadecin-6-yl)carbamate]
[1]; [7]
  EC50: < 5.46 nM
[2]; [8]
  EC50: < 5.46 nM

## CC[C@@H]1C[C@@H](C)CC/C=C\[C@@H]2C[C@@]2(C(=O)NS(=O)(=O)C2CC2)NC(=O)[C@@H]2C[C@@H](Oc3nccc4c(OC)cccc34)CN2C(=O)[C@H]1NC(=O)OC(C)(C)C(F)(F)F [Compound 3031, 1,1,1-trifluoro-2-methylpropan-2-yl((2R,6S,7R,9S,13aS,14aR,16aS,Z)-14a-((cyclopropylsulfonyl)carbamoyl)-7-ethyl-2-((5-methoxyisoquinolin-1-yl)oxy)-9-methyl-5,16-dioxo-1,2,3,5,6,7,8,9,10,11,13a,14,14a,15,16,16a-hexadecahydrocyclopropa[e]pyrrolo[1,2-a][1,4]diazacyclopentadecin-6-yl)carbamate]
[1]; [7]
  EC50: 4.82 to 103 nM
[2]; [8]
  EC50: 4.82 to 103 nM

## COc1cnc(O[C@@H]2C[C@H]3C(=O)N[C@]4(C(=O)NS(=O)(=O)C5(CF)CC5)C[C@H]4CCCC[C@H](C)C[C@@H](C)[C@H](NC(=O)OC(C)(C)C(F)(F)F)C(=O)N3C2)c2ccccc12 [Compound 5116, 1,1,1-trifluoro-2-methylpropan-2-yl((2R,6S,7R,9S,13aR,14aR,16aS)-14a-(((1-(fluoromethyl)cyclopropyl)sulfonyl)carbamoyl)-2-((4-methoxyisoquinolin-1-yl)oxy)-7,9-dimethyl-5,16-dioxooctadecahydrocyclopropa[e]pyrrolo[1,2-a][1,4]diazacyclopentadecin-6-yl)carbamate]
[1]; [5]
  EC50: > 87.4 nM
[2]; [6]
  EC50: 4.82 to 103 nM

## CC[C@@H]1C[C@H](C)CC/C=C\[C@@H]2C[C@@]2(C(=O)NS(=O)(=O)C2(C)CC2)NC(=O)[C@@H]2C[C@@H](Oc3nc(-c4ccc(OC(C)C)cn4)cc4cc(OC)ccc34)CN2C(=O)[C@H]1NC(=O)OC(C)(C)C [Compound 5481, tert-butyl ((2R,6S,7R,9R,13aS,14aR,16aS,Z)-7-ethyl-2-((3-(5-isopropoxypyridin-2-yl)-6-methoxyisoquinolin-1-yl)oxy)-9-methyl-14a-(((1-methylcyclopropyl)sulfonyl)carbamoyl)-5,16-dioxo-1,2,3,5,6,7,8,9,10,11,13a,14,14a,15,16,16a-hexadecahydrocyclopropa[e]pyrrolo[1,2-a][1,4]diazacyclopentadecin-6-yl)carbamate]
[1]; [5]
  EC50: 1.01 to 5 nM
[2]; [6]
  EC50: 1.01 to 5 nM

## COCC(C)(C)OC(=O)N[C@@H]1C(=O)N2C[C@H](Oc3ncc(OC)c4ccccc34)C[C@H]2C(=O)N[C@]2(C(=O)NS(=O)(=O)C3(CF)CC3)C[C@H]2/C=C\CC[C@@H](C)C[C@H]1C [Compound 1050, 1-methoxy-2-methylpropan-2-yl((2R,6S,7R,9R,13aS,14aR,16aS,Z)-14a-(((1-(fluoromethyl)cyclopropyl)sulfonyl)carbamoyl)-2-((4-methoxyisoquinolin-1-yl)oxy)-7,9-dimethyl-5,16-dioxo-1,2,3,5,6,7,8,9,10,11,13a,14,14a,15,16,16a-hexadecahydrocyclopropa[e]pyrrolo[1,2-a][1,4]diazacyclopentadecin-6-yl)carbamate]
[1]; [7]
  EC50: < 5.46 nM
[2]; [8]
  EC50: < 5.46 nM

## COc1cc(F)cc2c(O[C@@H]3C[C@H]4C(=O)N[C@]5(C(=O)NS(=O)(=O)C6CC6)C[C@H]5/C=C\CC[C@H](C)C[C@@H](C)[C@H](NC(=O)OC(C)(C)C)C(=O)N4C3)nccc12 [Compound 3163, tert-butyl ((2R,6S,7R,9S,13aS,14aR,16aS,Z)-14a-((cyclopropylsulfonyl)carbamoyl)-2-((7-fluoro-5-methoxyisoquinolin-1-yl)oxy)-7,9-dimethyl-5,16-dioxo-1,2,3,5,6,7,8,9,10,11,13a,14,14a,15,16,16a-hexadecahydrocyclopropa[e]pyrrolo[1,2-a][1,4]diazacyclopentadecin-6-yl)carbamate]
[1]; [7]
  EC50: 4.82 to 103 nM
[2]; [8]
  EC50: 4.82 to 103 nM

Source: US9499550B2 (BRISTOL-MYERS SQUIBB COMPANY, priority 2012, dated 2016)
